# According to patent US20140243411A1 (priority 2011, published 2014):
# Marks after values point to notes of the source that are not given here.
# Tested on: rats contaminated with ^241Am
# Assay: Radionuclide decorporation efficacy study in rats contaminated with 241Am (Example 10): excretion, tissue content, liver and skeleton burden
# Type: in vivo, SD rats
# Protocol: All animal studies were conducted according to a protocol approved by the University of North Carolina at Chapel Hill Institutional Animal Care and Use Committee (IACUC). Ten-week-old adult female SD rats weighing from 200 to 300 g were used in these studies (Charles River Labs, Raleigh, N.C.). Food and water were given ad libitum. The animal room was kept at a controlled temperature (23° C.) and light cycle (light exposure from 8 AM to 8 PM). For the duration of the study, the rats were housed in metabolic cages individually with daily urine and feces collection until euthanasia on Day 7.
# To evaluate the efficacy of transdermal delivery of the C2E5 nonaqueous gel, a radionuclide decorporation efficacy study was conducted in rats contaminated with ^241Am. Adult female SD rats were anesthetized with 2-3% isoflurane. Dorsal skin between the cervical vertebrae and anterior thoracic vertebrae was clipped with caution before all animals were contaminated with [^241Am]-Americium nitrate solution (250 nCi, 0.1 mL) via an i.m. injection in anterior thigh muscle. The C2E5 nonaqueous gel was applied at dose of 1000 mg/kg using a cotton swap to a 6 cm^2 (2 cm×3 cm) area of the clipped dorsal region immediately after contamination. A jacket with plastic dorsal insert (VWR International) was placed on the rat to protect the gel application region. The mass of C2E5 gel applied was recorded for each animal to permit the actual dose determination. The animals were housed in metabolic cages individually after C2E5 treatment and were euthanized 7 days after contamination. Positive and negative controls included animals administered Ca-DTPA intravenously and animals without any treatment. The animals were observed once daily and their body weights recorded at pre-dose and prior to necropsy, Urine and feces were collected daily until euthanasia, when the liver, kidneys, both femurs and the muscle tissue from around the injection site were also collected. Cage washes were collected at the end of each experiment. As ˜35% of the decay of ^241Am is associated with photon emissions of 59.7 keV, ^241Am present in samples was quantified using a gamma counter (2470 Wizard 2, Perkin Elmer). The samples were counted for one minute using a 40-80 keV energy detection window and were background-corrected. Additionally, ^241Am activity was quantified in 2×0.1 mL aliquots of the dosing solution. For all samples, ^241Am content was expressed as a percentage of the initial dose.
# where % ID represents the percent of injected dose. Where data for both femurs were available, an estimate of the total skeletal burden was made using the method of Volf with modification in which the counts in the contra-lateral femur were multiplied by 19 and added to the counts in the ipsi-lateral femur. The modification for the literature method was due to higher ^241Am content in ipsi-lateral femur as a result of i.m. injection in anterior thigh muscle.
# Statistically significant differences among groups were determined using one-way ANOVA with Tukey's post hoc comparison. All measurements are expressed as mean±standard deviation (S.D.). The level of significance was set at p<0.05.
# [1] = rats, seven days following a single dose, Ca-DTPA 14 mg/kg i.v., C2E5 1000 mg/kg transdermal
# [2] = seven days after single dose, Ca-DTPA 14 mg/kg i.v., C2E5 1000 mg/kg transdermal gel
smiles,measurement,setting,value
"O=C([O-])CN(CCN(CC(=O)[O-])CC(=O)[O-])CCN(CC(=O)[O-])CC(=O)[O-].[Ca+2].[Na+].[Na+].[Na+] [Ca-DTPA, reference compound]",time of peak ^241Am excretion,14 mg/kg i.v.,≤ 24 h
same,Skeleton Burden (% of ID),"contra-lateral femur × 19 + ipsi-lateral femur, rats, seven days following a single dose, Ca-DTPA 14 mg/kg i.v. (n = 3), C2E5 1000 mg/kg transdermal",11.6 ± 2.2^b % of ID
same,Ipsi-lateral femur content of 241Am,"rats, seven days following a single dose, Ca-DTPA 14 mg/kg i.v. (one animal excluded), C2E5 1000 mg/kg transdermal",0.88 ± 0.18^c % of ID of ^241Am
same,% of Reduction over control (liver burden),[1],38.2%
same,% of Reduction over control (skeleton burden),[1],29.3%
same,Contra-lateral femur content of 241Am,[1],0.57 ± 0.09 % of ID of ^241Am
same,Kidney content of 241Am,[1],0.55 ± 0.03 % of ID of ^241Am
same,Liver Burden (% of ID),[1],10.2 ± 2.7 % of ID
same,Liver content of 241Am,[1],10.2 ± 2.7 % of ID of ^241Am
same,Muscle-contra content of 241Am,[1],0.0054 ± 0.0028 % of ID of ^241Am per gram of muscle-contra
same,Muscle-ipsi content of 241Am,[1],40.0 ± 8.5 % of ID of ^241Am
same,Pelt at injection site content of 241Am,[1],0.43 ± 0.24 % of ID of ^241Am
same,Total decorporation (% of ID of 241Am),[1],24.5 ± 3.5 % of ID of ^241Am
same,reduction of liver burden of ^241Am versus control group,"seven days after single dose, Ca-DTPA 14 mg/kg i.v., C2E5 1000 mg/kg transdermal",38.2%
same,% of Enhanced decorporation over control,[2],255.3%
same,Cumulative excretion of ^241Am In feces,[2],6.1 ± 1.1 % of ID
same,Cumulative excretion of ^241Am In urine,[2],18.3 ±2.5 % of ID
same,Cumulative excretion of ^241Am Total,[2],24.5 ± 3.5 % of ID
